These results are taken from patent US20220046917A1, “ATTRACTANT BLEND COMPOSITIONS, DEVICES AND METHODS FOR ATTRACTING FEMALE MICE” (priority 2020, published 2022).

Experiment [1] deals with wild mice. Description: Experiment 3: field experiment, captures in paired baited trap boxes. In kind it is in vivo, Mus musculus. The settings on record: Exp. 3, paired trap boxes. The procedure: (§1) Each replicate (n=49) consisted of paired trap boxes as depicted in FIG. 4. The paired trap boxes, PROTECTA® Mouse, Bell Laboratories Inc. Madison, Wis.
(§2) Twice every week, paired trap boxes were checked, and food lures and pheromone lures replaced. Whenever a mouse had been captured, its sex and age (juvenile or adult based on body size and genitalia development) were recorded, and a new trap box and snap trap were deployed. […] The position of the treatment and the control trap within paired trap boxes was re-randomized after each capture.
(§3) Experiments 3 and 4 evaluated the respective abilities of the CPCs and a blend of brevicomin and thiazole to enhance the attractiveness of testosterone. […] Specifically, in Experiment 3, the treatment box in each pair was baited with brevicomin (1 mg) and thiazole (1 mg) formulated in mineral oil (10 ml) and contained in a 20-ml glass scintillation vial. […] To minimize any potential sources of error, treatment and control trap boxes in each experiment were fitted with the same glassware and volume of mineral oil.

The test system of experiment [2] is wild mice. The experiment in a line: Experiment 4: field experiment, captures in paired baited trap boxes. The settings on record: Exp. 4, paired trap boxes. The class given is in vivo, Mus musculus. The procedure:
as §1, §2, §3

Molecules are shown by their SMILES.

Turning to `C[C@]12CC[C@H]3[C@@H](CCC4=CC(=O)CC[C@@]43C)[C@@H]1CC[C@@H]2O` [testosterone], the “adult female mice captured” value in the experiment on wild mice [1] is given as “one”. Besides, in the experiment on wild mice [2], the adult females captured entry is on record as “four”, the adult males captured entry is “seven” and the juvenile male captured result is on record as “one”.
